{"source": "patent US7495024B2", "about": "“Phenylalkyl N-hydroxyureas for combating atherosclerotic plaque” (VIA Pharmaceuticals, Inc., priority 2006, dated 2009)", "key": {"[1]": {"system": "patients suffering from Acute Coronary Syndrome (ACS)", "assay": "Randomized, double blind, placebo-controlled study in patients with Acute Coronary Syndrome: biomarkers and MDCT (Example 3)", "format": "in vivo, human", "settings": "25, 50 or 100 mg per day oral", "procedure": "In this study the plaque levels were determined by use of Multidetector (64 slice coronary) Computerized Tomography (MDCT) scan indicative of such plaque in male and female patients suffering from Acute Coronary Syndrome (ACS). The efficacy of this treatment in reducing the effects of cardiovascular disease was determined by the use of biomarkers for this disease. […] At the end of the twenty-four week period the plaque in the patients is analyzed using the Multidetector (64 slice coronary) Computerized Tomography (MDCT) scan. […] Thus, the groups take the following matching capsules at each daily administration of the study medication: • Placebo: two placebo capsules • 25 mg dose: one placebo capsule plus one 25 mg capsule • 50 mg dose: 1 placebo capsule plus one 50 mg capsule • 100 mg dose: two 50 mg capsules The following baseline assessments in each of the patients are made prior to the study: history and complete physical examination; focused physical exam (for signs of bleeding disorder); 12-Lead ECG; measurement of inflammatory biomarkers (LTB4 (ex vivo) measured at trough; LTE4 urine; hsCRP; MPO; MCP1 (CCL2); M-CSF (CSF-1); MIP-2 (Cxcl2); osteopontin (Spp1)); hematology; chemistries; urinalysis; serum pregnancy test for women of childbearing potential; and 64-slice coronary MDCT imaging with contrast. […]"}, "[2]": {"system": "ApoE-deficient mice", "assay": "Gross qualitative atherosclerotic lesion analysis of aortas, prevention of plaque formation (Example 1)", "format": "in vivo", "settings": "12-week old ApoE-deficient mice, 28 days", "from_the_text": "In Examples 1 and 2 knockout mice deficient in producing the protein Apolipoprotein E [apoE] were used. ApoE-deficient mice are known to spontaneously develop atherosclerotic plaque at 12-16 weeks, which process is accelerated by feeding the mice a high fat diet. Because the atherosclerotic lesions found in these mice are histologically similar to those found in humans, the ApoE-deficient mice are used as a model for assessing the effects of a drug on atherosclerotic plaque in humans. This example was carried out on ApoE-deficient knockout mice who were before their normal development of atherosclerotic plaque which occurs in about 12 weeks to determine the effect of compound X i.e. the compound: (N-[3-[5-[(4-fluorophenyl)methyl]-2-thienyl]-1-methyl-2-propynyl]-N-hydroxyurea) on the prevention of plaque formation. Four week old female ApoE knockout mice were fed a high fat diet (21% anhydrous milk fat and 0.15% cholesterol) for a period of eight weeks. […] The results which are given in FIG. 1 were analyzed by one-way analysis of variance (ANOVA) and Student's unpaired t-test comparing each treatment arm to the appropriate control arm."}}, "data": [{"smiles": "CC(C#Cc1ccc(Cc2ccc(F)cc2)s1)N(O)C(N)=O", "note": "(stereo not shown) [compound X, N-[3-[5-[(4-fluorophenyl)methyl]-2-thienyl]-1-methyl-2-propynyl]-N-hydroxyurea]", "values": [{"measurement": "levels of inflammatory biomarkers for cardiovascular disease, percentage of patients vs placebo group", "setting": "[1]; 12 weeks of dosing", "result": "decrease in the levels of inflammatory biomarkers"}, {"measurement": "density and/or plaque volume of coronary noncalcified plaque index lesions by 64-slice MDCT, percentage of patients vs placebo group", "setting": "[1]; 24 weeks of dosing", "result": "a change in the density and/or plaque volume"}, {"measurement": "extent of plaque in the proximal aorta", "setting": "[2]; high fat diet, 1, 10 and 50 mg/kg/day oral once daily, vs vehicle", "result": "reductions in the extent of plaque"}, {"measurement": "reduction of plaque formation in the proximal aorta compared to vehicle", "setting": "[2]; 50 mg/kg/day oral, p<0.03", "result": "~40", "unit": "%"}]}]}
